According to publication PMC11790914, “Chemogenomics for steroid hormone receptors (NR3)” (Communications Chemistry, 2025):
Where “and” joins values, the source holds several entries; their conditions need not be identical. Equal values may be shown once.

Experiments:
[1] = target: T1, FGFR3 (Homo sapiens, UniProt P22607); assay: Liability panel screening by DSF: FGFR3; type: binding; conditions: DSF, 20 µM, n=2; read-out: Mean ΔTM FGFR3
T1 construct: made in house
Method: (§1) Reference ligands are listed in the methods section.
(§2) In-house produced recombinantly expressed proteins[62] of the liability panel targets were diluted in a buffer containing 10 mM HEPES (pH 7.5) and 500 mM NaCl to a concentration of 2 µM. SYPRO Orange (Invitrogen, Carlsbad, California, USA; #S6650) as a fluorescence probe was added at a 1:1000 dilution to the proteins. […] Temperature-dependent unfolding profiles were measured on a QuantStudio™ 5 real-time PCR machine (Thermo Fisher Scientific, Waltham, Massachusetts, USA; #A28140). […] The temperature was increased 3 °C per minute to a maximum temperature of 85 °C. Experiments were run as technical duplicates. […] Data were analyzed with the internal Thermal Shift Software (version 1.4, Thermo Fisher Scientific) using the Boltzmann equitation to determine the inflection point of the transition curve. Differences in melting temperature are given as ∆Tm in K. […]
(§3) scanning fluorimetry (DSF).
(§4) a concentration of 20 µM.

[2] = target: T2, GSK3B (Homo sapiens, UniProt P49841); assay: Liability panel screening by DSF: GSK3B; type: binding; conditions: DSF, 20 µM, n=2; read-out: Mean ΔTM GSK3B
T2 construct: made in house

[3] = system: HEK293T cells; assay: Cytotoxicity: metabolic activity (WST-8 / CCK-8 assay); conditions: HEK293T, 24 h, WST-8, normalized to 0.1% DMSO, single replicates
[4] = target: T3, BRD4 (Homo sapiens, UniProt O60885); assay: Liability panel screening by DSF: BRD4; type: binding; conditions: DSF, 20 µM, n=2; read-out: Mean ΔTM BRD4
T3 construct: This panel comprised ten highly ligandable kinases and bromodomains; made in house
Method: as §1, §2, §3, §4

[5] = target: T4, CSNK1D (Homo sapiens, UniProt P48730); assay: Liability panel screening by DSF: CSNK1D; type: binding; conditions: DSF, 20 µM, n=2; read-out: Mean ΔTM CSNK1D
T4 construct: made in house
Method: as §1, §2, §3, §4

[6] = system: HEK293T cells; assay: Cytotoxicity: apoptosis induction (caspase-3/7 DEVD fluorogenic DNA dye); conditions: HEK293T, 24 h, apoptotic cell count normalized to 0.1% DMSO, single replicates
[7] = system: ATF6 activity in Hela ATF6 reporter cells; assay: Endoplasmic reticulum stress assay (ATF6 Renilla luciferase reporter, tunicamycin); type: cell-based; conditions: for ATF6 activity (tunicamycin-induced endoplasmic reticulum stress): Hela ATF6 reporter cells, tunicamycin 100 ng/mL, 18 h, compounds at recommended concentrations, n = 5
Method: After 24 h, cells were incubated with the test compounds solubilized with 0.1% DMSO in the same medium without puromycin. After 4 h incubation, tunicamycin (100 ng/mL) was added. After another 18 h incubation, cells were assayed for renilla luminescence using DualGlo reagent (Promega) on a Tecan SPARK Cyto (Tecan). Test samples were normalized to the 0.1% DMSO control. Each sample was repeated in five biologically independent experiments.

[8] = target: T5, CDK2 (Homo sapiens, UniProt P24941); assay: Liability panel screening by DSF: CDK2; type: binding; conditions: DSF, 20 µM, n=2; read-out: Mean ΔTM CDK2
T5 construct: made in house
Method: as §1, §2, §3, §4

[9] = system: HEK293T cells; assay: Cytotoxicity: necrosis induction (red fluorescent dye for permeable plasma membranes); type: cell-based; conditions: 24 h, necrotic cell count normalized to 0.1% DMSO, single replicates;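 also: compounds applied in DMEM high glucose with 0.1% FCS and 0.1% DMSO, necrotic HEK293T cells counted by red staining of cells whose plasma membranes had become permeable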
[10] = target: T6, BRPF1 (Homo sapiens, UniProt P55201); assay: Liability panel screening by DSF: BRPF1; type: binding; conditions: DSF, 20 µM, n=2; read-out: Mean ΔTM BRPF1
T6 construct: This panel comprised ten highly ligandable kinases and bromodomains; made in house
T6 sequence (P55201 628-732 limits assumed): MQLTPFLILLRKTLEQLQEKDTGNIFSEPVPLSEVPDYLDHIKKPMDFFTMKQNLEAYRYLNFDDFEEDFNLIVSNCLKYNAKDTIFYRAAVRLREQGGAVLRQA
Method: as §1, §2, §3, §4

[11] = target: T7, AURKA (Homo sapiens, UniProt O14965); assay: Liability panel screening by DSF: AURKA; type: binding; conditions: DSF, 20 µM, n=2; read-out: Mean ΔTM AURKA
T7 construct: made in house
T7 sequence (O14965 1-403): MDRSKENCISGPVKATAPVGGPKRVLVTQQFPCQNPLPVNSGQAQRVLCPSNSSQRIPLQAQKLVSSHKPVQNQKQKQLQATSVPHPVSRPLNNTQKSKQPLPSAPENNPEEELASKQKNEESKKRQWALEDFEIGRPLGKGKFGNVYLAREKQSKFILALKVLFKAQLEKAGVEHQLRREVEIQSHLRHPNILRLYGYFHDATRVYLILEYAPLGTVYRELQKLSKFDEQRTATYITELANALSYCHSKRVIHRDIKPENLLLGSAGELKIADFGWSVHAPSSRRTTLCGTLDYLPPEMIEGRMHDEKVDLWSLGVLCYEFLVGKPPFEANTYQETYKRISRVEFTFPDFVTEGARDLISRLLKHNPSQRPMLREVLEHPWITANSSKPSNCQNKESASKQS
Method: as §1, §2, §3, §4

[12] = system: NF-κB activity in HEK293 NF-κB reporter cells; assay: NF-kB activity assay (GFP reporter, ionomycin/PMA); type: cell-based; conditions: for Mean NFκB response: n=3
Method: Fig. 6 Application of the NR3 CG set.
After 24 h, cells were incubated with the test compounds solubilized with 0.1% DMSO in the same medium without puromycin. After 4 h incubation, ionomycin (100 ng/mL) and phorbol-12-myristat-13-acetate (PMA, 10 ng/mL) was added, and the cells were imaged for confluence and GFP expression every 90 min. over 24 h using a Tecan SPARK Cyto (Tecan). The number of GFP expressing cells was normalized to confluence in each sample. Each sample was repeated in three biologically independent experiments.

[13] = system: HEK293T cells; assay: Cytotoxicity: growth-rate (change in confluence over 24 h); conditions: normalized to 0.1% DMSO control, single replicates (n=1...)
[14] = target: T8, ABL1 (Homo sapiens, UniProt P00519); assay: Liability panel screening by DSF: ABL1; type: binding; conditions: DSF, 20 µM, n=2; read-out: Mean ΔTM ABL1
T8 construct: made in house
Method: as §1, §2, §3, §4

[15] = target: T9, TRIM24 (Homo sapiens, UniProt O15164); assay: Liability panel screening by DSF: TRIM24; type: binding; conditions: DSF, 20 µM, n=2; read-out: Mean ΔTM TRIM24
T9 construct: This panel comprised ten highly ligandable kinases and bromodomains; made in house
T9 sequence (O15164 899-1004 limits assumed): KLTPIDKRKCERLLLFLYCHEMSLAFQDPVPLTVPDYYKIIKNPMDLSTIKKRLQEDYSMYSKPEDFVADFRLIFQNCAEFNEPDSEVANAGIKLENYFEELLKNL
Method: as §1, §2, §3, §4

[16] = target: T10, MAPK1 (Homo sapiens, UniProt P28482); assay: Liability panel screening by DSF: MAPK1; type: binding; conditions: DSF, 20 µM, n=2; read-out: Mean ΔTM MAPK1
T10 construct: made in house
Method: as §1, §2, §3, §4

T2 sequence (P49841 whole entry, species assumed): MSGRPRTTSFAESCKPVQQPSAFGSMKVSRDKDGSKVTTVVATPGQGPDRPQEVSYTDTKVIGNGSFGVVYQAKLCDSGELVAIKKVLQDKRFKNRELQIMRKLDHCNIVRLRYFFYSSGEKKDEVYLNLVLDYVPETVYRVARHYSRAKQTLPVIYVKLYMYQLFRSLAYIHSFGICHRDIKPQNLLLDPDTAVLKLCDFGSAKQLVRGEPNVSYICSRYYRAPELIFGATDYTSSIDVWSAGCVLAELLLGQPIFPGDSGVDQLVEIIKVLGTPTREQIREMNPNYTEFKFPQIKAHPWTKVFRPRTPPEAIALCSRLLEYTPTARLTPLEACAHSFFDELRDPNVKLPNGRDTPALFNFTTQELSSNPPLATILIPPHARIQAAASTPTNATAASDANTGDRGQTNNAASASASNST
T10 sequence (P28482 whole entry, species assumed): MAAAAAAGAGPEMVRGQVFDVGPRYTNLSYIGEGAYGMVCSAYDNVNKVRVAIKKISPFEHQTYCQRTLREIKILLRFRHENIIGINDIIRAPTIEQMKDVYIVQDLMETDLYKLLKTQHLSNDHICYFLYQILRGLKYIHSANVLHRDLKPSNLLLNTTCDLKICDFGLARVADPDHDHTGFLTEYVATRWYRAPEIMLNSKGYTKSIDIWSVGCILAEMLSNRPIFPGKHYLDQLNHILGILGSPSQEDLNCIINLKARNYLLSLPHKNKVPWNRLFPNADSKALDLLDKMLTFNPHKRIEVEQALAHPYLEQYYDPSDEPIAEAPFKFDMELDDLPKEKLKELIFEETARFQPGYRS
T8 sequence (P00519 whole entry, species assumed): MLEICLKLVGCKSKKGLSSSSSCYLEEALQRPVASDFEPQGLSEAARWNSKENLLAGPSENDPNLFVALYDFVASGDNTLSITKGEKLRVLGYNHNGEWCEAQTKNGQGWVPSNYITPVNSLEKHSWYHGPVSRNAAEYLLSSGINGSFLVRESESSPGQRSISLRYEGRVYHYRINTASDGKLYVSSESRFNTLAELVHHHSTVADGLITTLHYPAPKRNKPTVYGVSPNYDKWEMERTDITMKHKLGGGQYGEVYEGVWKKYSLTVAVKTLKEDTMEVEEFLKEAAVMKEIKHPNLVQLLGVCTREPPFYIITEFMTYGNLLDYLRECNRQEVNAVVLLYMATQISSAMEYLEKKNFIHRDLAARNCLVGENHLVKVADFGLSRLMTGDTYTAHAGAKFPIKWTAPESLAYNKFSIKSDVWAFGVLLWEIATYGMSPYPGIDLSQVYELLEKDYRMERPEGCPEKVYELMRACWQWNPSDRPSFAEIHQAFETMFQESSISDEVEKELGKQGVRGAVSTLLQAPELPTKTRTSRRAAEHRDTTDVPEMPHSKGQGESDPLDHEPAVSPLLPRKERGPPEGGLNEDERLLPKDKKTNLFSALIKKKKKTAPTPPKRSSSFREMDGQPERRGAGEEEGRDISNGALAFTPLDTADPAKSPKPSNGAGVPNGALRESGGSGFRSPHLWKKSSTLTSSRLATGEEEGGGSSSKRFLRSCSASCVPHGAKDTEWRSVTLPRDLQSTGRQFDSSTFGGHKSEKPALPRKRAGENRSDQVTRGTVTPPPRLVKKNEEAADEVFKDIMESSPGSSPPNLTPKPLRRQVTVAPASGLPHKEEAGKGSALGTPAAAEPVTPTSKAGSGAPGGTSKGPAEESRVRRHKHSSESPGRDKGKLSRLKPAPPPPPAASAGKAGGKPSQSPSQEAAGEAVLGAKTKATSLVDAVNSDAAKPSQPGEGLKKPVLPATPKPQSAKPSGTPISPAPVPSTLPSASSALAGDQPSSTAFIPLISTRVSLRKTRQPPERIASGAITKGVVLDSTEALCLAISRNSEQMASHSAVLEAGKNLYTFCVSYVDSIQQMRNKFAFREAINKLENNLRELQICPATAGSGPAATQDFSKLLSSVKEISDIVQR
T1 sequence (P22607 23-806, species assumed): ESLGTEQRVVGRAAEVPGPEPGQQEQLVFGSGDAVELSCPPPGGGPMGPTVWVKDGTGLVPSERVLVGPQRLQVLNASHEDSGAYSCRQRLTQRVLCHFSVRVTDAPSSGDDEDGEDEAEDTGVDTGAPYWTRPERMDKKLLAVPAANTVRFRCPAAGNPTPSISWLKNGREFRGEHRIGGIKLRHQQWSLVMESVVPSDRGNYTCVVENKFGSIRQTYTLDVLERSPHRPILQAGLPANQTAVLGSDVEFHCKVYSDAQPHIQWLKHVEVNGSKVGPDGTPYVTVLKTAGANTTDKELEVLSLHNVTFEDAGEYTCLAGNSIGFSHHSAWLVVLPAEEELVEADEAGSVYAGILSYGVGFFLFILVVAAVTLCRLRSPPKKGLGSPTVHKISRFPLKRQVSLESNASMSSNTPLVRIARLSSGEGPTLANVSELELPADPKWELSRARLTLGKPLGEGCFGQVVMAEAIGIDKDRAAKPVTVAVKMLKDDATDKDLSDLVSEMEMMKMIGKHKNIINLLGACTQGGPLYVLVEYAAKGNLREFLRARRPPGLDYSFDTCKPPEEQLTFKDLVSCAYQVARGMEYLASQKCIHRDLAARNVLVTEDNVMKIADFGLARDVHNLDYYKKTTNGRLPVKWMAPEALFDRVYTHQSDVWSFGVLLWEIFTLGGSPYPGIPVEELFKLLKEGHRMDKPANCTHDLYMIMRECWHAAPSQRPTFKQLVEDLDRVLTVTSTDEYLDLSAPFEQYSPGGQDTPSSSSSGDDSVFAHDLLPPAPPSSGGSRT
T4 sequence (P48730 whole entry, species assumed): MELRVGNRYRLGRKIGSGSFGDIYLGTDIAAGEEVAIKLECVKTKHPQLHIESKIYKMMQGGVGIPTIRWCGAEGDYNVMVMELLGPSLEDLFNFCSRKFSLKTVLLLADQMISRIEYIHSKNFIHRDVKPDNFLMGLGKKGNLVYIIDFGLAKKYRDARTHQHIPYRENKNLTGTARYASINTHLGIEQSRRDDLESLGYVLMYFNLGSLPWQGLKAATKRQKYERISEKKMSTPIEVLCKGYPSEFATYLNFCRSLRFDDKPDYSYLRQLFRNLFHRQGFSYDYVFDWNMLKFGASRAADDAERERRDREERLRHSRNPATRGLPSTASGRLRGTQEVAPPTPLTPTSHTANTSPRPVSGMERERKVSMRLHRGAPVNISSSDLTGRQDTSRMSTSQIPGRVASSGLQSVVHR

## CN(C)CCOc1ccc(/C(=C(/CCCO)c2ccccc2)c2ccc(O)cc2)cc1 [GSK5182]
[1]
  ΔTm at 20 µM: 0.62 °C
[2]
  ΔTm at 20 µM: -1.96 °C
[3]; 10 µM
  Metabolic activity [MA]: 0.99 and 0.91 (2×) and 0.85 and 1.04 and 1.01 and 0.95 and 0.93
[4]
  ΔTm at 20 µM: -2.92 °C
[5]
  ΔTm at 20 µM: -0.68 °C
[6]; 10 µM
  Apoptosis induction [AI]: 0.95 and 1.15 and 0.71 and 1.22 (2×) and 1.40
[7]
  ATF6 activity (tunicamycin-induced endoplasmic reticulum stress): lacked this effect
[7]; Homo sapiens, HeLa, 10 µM, single replicates n=1 to n=5, read-out: ER stress [rel. ATF6 activity]
  activity at 10 µM: 88%
[8]
  ΔTm at 20 µM: 0.68 °C
[9]; 10 µM
  Necrosis induction [NI]: 0.56 and 0.11 and 0.30 and 0.25
[10]
  ΔTm at 20 µM: -1.74 °C
[11]
  ΔTm at 20 µM: -0.17 °C
[12]; 10 µM, 1,5 h
  Mean NFκB response: 4124.00 GFP+-cells/confluence ∙ 1000
[12]; 10 µM, 4,5 h
  Mean NFκB response: 4518.85 GFP+-cells/confluence ∙ 1000
[12]; 10 µM, 7,5 h
  Mean NFκB response: 8291.63 GFP+-cells/confluence ∙ 1000
[12]; 10 µM, 10,5 h
  Mean NFκB response: 18033.90 GFP+-cells/confluence ∙ 1000
[12]; 10 µM, 13,5 h
  Mean NFκB response: 26386.99 GFP+-cells/confluence ∙ 1000
[12]; 10 µM, 16,6 h
  Mean NFκB response: 32458.21 GFP+-cells/confluence ∙ 1000
[12]; 10 µM, 19,5 h
  Mean NFκB response: 36483.54 GFP+-cells/confluence ∙ 1000
[12]; 10 µM, 22,5 h
  Mean NFκB response: 40081.60 GFP+-cells/confluence ∙ 1000
[12]; 10 µM, 3 h
  Mean NFκB response: 4121.32 GFP+-cells/confluence ∙ 1000
[12]; 10 µM, 6 h
  Mean NFκB response: 5330.81 GFP+-cells/confluence ∙ 1000
[12]; 10 µM, 9 h
  Mean NFκB response: 13339.51 GFP+-cells/confluence ∙ 1000
[12]; 10 µM, 12 h
  Mean NFκB response: 22208.27 GFP+-cells/confluence ∙ 1000
[12]; 10 µM, 15 h
  Mean NFκB response: 29794.15 GFP+-cells/confluence ∙ 1000
[12]; 10 µM, 18 h
  Mean NFκB response: 34711.23 GFP+-cells/confluence ∙ 1000
[12]; 10 µM, 21 h
  Mean NFκB response: 38030.00 GFP+-cells/confluence ∙ 1000
[12]; 10 µM, 24 h
  Mean NFκB response: 41021.29 GFP+-cells/confluence ∙ 1000
[13]; 10 µM
  Growth rate [GR]: 0.52 and 3.08 and 0.59 and 0.82 and 0.68 and 0.29 and 0.42 and 1.20 and 1.31 and 8.43
[14]
  ΔTm at 20 µM: 0.43 °C
[15]
  ΔTm at 20 µM: -0.25 °C
[16]
  ΔTm at 20 µM: 0.14 °C

## N#CC(Cc1ccc(O)cc1)c1ccc(O)cc1 (stereo not shown) [Diarylpropionitrile]
[1]
  ΔTm at 20 µM: 0.51 °C
[2]
  ΔTm at 20 µM: 0.0529 °C
[3]; 1 µM
  Metabolic activity [MA]: 1.05 and 0.99 and 0.90 and 1.01 and 1.03 and 0.93 and 1.00 and 1.10
[4]
  ΔTm at 20 µM: 0.26 °C
[5]
  ΔTm at 20 µM: 0.0747 °C
[6]; 1 µM
  Apoptosis induction [AI]: 0.70 and 1.46 and 0.65 and 1.11 and 1.49 and 0.58
[7]
  ATF6 activity (tunicamycin-induced endoplasmic reticulum stress): failed to reduce ATF6 activity
[8]
  ΔTm at 20 µM: 0.74 °C
[9]; 1 µM
  Necrosis induction [NI]: 1.10 and 0.85 and 0.90 and 1.44
[10]
  ΔTm at 20 µM: -1.46 °C
[11]
  ΔTm at 20 µM: 0.16 °C
[12]; 1 µM, 1,5 h
  Mean NFκB response: 3165.75 GFP+-cells/confluence ∙ 1000
[12]; 1 µM, 4,5 h
  Mean NFκB response: 4108.72 GFP+-cells/confluence ∙ 1000
[12]; 1 µM, 7,5 h
  Mean NFκB response: 9286.59 GFP+-cells/confluence ∙ 1000
[12]; 1 µM, 10,5 h
  Mean NFκB response: 18231.50 GFP+-cells/confluence ∙ 1000
[12]; 1 µM, 13,5 h
  Mean NFκB response: 25916.56 GFP+-cells/confluence ∙ 1000
[12]; 1 µM, 16,6 h
  Mean NFκB response: 31500.03 GFP+-cells/confluence ∙ 1000
[12]; 1 µM, 19,5 h
  Mean NFκB response: 35046.16 GFP+-cells/confluence ∙ 1000
[12]; 1 µM, 22,5 h
  Mean NFκB response: 38151.13 GFP+-cells/confluence ∙ 1000
[12]; 1 µM, 3 h
  Mean NFκB response: 3363.39 GFP+-cells/confluence ∙ 1000
[12]; 1 µM, 6 h
  Mean NFκB response: 5664.74 GFP+-cells/confluence ∙ 1000
[12]; 1 µM, 9 h
  Mean NFκB response: 14005.24 GFP+-cells/confluence ∙ 1000
[12]; 1 µM, 12 h
  Mean NFκB response: 22519.63 GFP+-cells/confluence ∙ 1000
[12]; 1 µM, 15 h
  Mean NFκB response: 29221.60 GFP+-cells/confluence ∙ 1000
[12]; 1 µM, 18 h
  Mean NFκB response: 33392.36 GFP+-cells/confluence ∙ 1000
[12]; 1 µM, 21 h
  Mean NFκB response: 36386.11 GFP+-cells/confluence ∙ 1000
[12]; 1 µM, 24 h
  Mean NFκB response: 39415.66 GFP+-cells/confluence ∙ 1000
[12]; HEK293 NF-κB reporter cells, compounds at recommended concentrations, imaged over 24 h, n = 3
  NF-κB activity (inflammatory response to ionomycin/PMA): no impact on NF-κB activity
[13]; 1 µM
  Growth rate [GR]: 0.79 (2×) and 0.00 (2×) and 0.84 and 1.00 and 0.91 and 0.88 and 1.61 and 5.04
[14]
  ΔTm at 20 µM: 0.17 °C
[15]
  ΔTm at 20 µM: 0.03 °C
[16]
  ΔTm at 20 µM: 0.0328 °C
